Assay results: patent US10745393B2, “Small molecular probes, processes and use thereof” (JAWAHARLAL NEHRU CENTRE FOR ADVANCED SCIENTIFIC RESEARCH, priority 2014, dated 2020)
Read-outs that look alike come from different tables or passages of the source. Marks after values point to notes of the source that are not given here.

Legend:
[1] = Absorption, emission and quantum yield of probes in Tris-HCl buffer without DNA; type: physicochemical; conditions: for ΦF in Buffer: Tris-HCl buffer (100 mM, pH 7.4), absence of DNA; for emission (fluorescence) maxima / absorption maxima: Tris-HCl buffer, no DNA; for emission (fluorescence) maxima: very weak fluorescence; for absorption maxima: probe 10 μM
[2] = test system: (GC)10; assay: Fluorescence response / quantum yield of probes with dsDNA (GC)10; type: binding; conditions: for ΦF with (GC)10: Tris-HCl buffer (100 mM, pH 7.4); for fluorescence change in presence of (GC)10: probe 10 μM
[3] = test system: (AT)20; assay: Fluorescence response / quantum yield of probes with dsDNA (AT)20; type: binding; conditions: for ΦF with (AT)20: Tris-HCl buffer (100 mM, pH 7.4)
[4] = test system: (D1)mix; assay: Fluorescence response / quantum yield of probes with dsDNA (D1)mix; type: binding; conditions: Tris-HCl buffer (100 mM, pH 7.4)
[5] = test system: DNA; assay: Comparison of DNA dyes: sequence selectivity and fluorescence of free/DNA bound dye; type: binding
[6] = test system: DNA; conditions: cited from earlier work; for Fluorescence qauntum yield (ΦF) DNA bound dye: Table 3, superscript a, commercial dyes
[7] = test system: cells; conditions: Table 3, commercial dyes; cited from earlier work
[8] = test system: cells; conditions: Table 3, commercial dyes; cited from earlier work; remark: listed apart in the source
[9] = test system: HEK293 cells; assay: DNase I and RNase digestion studies; type: cell-based; conditions: 2 hours
Method: DNase I is known to degrade nuclear DNA while RNase degrades RNA in the cytoplasm by catalyzing phosphodiester bonds cleavage. HEK293 cells are fixed with chilled methanol for about 1 minute at room temperature and permeabilized with 0.1% Triton X-100 in PBS for about 2×5 minutes. After rinsing with PBS twice, for one set of experiments, cells are treated with probe TC (5 μM) for about 15 min at room temperature in three adjacent wells. A total of about 200 μL PBS (as control experiment), about 100 μg/mL DNase I (Sigma), or about 30 μg/ml DNase-Free RNase (GE) is added into the three adjacent wells and incubated at about 37° C. for about 2 hours. For another set of experiments, instead of treating with probe TC, cells are only treated with about 200 μL PBS (as control experiment), about 100 μg/ml DNase I (Sigma), or about 30 μg/mL DNase-Free RNase (GE) by adding into the three adjacent wells and incubating at about 37° C. for about 2 hours. […] After two more washes in PBS with 0.1% Triton X-100, the cover slips are washed in PBS, rinsed in ddH2O and briefly dipped in 100% ethanol. After a quick dry, cover slips are mounted with 70% glycerol. Images are captured using a Carl Zeiss Laser Scanning Microscope (LSM510 META) using an equal exposure time for control, DNase I, and RNase experiments. Experiments are done in duplicate.

[10] = test system: ssDNA oligonucleotides (dA10, dT10, dG10 and dC10); assay: Fluorescence emission in presence of ssDNA oligonucleotides; type: binding; conditions: probe 10 μM, Tris-HCl buffer
[11] = test system: (AT)10; assay: Absorption / fluorescence response of probes with dsDNA (AT)10; type: binding; conditions: for fluorescence enhancement in presence of (AT)10: probe 10 μM, DNA 0 to 12 μM
[12] = molecular target: Aβ42 aggregates (Homo sapiens, UniProt P05067); assay: Absorption / fluorescence response with Aβ42 fibrillar aggregates; type: binding
Sequence of Aβ42 aggregates (P05067 672-713 limits assumed): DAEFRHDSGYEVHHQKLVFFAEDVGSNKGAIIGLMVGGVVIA

[13] = Absorption, emission and quantum yield of probes without Aβ42 aggregates; type: physicochemical
[14] = molecular target: ThT/Aβ42 aggregate complex (Homo sapiens, UniProt P05067); assay: ThT displacement / FRET assay; type: binding; conditions: excess ThT 50 μM; TC 1 μM, Aβ42 50 μM
Sequence of ThT/Aβ42 aggregate complex (P05067 672-713 limits assumed, one chain of several): as the sequence (P05067 672-713 limits assumed) above

[15] = test system: Aβ plaques in CSF samples; assay: Detection of amyloid plaques in CSF samples by fluorescence; conditions: ThT 20 μM
Method: In the present experiment, Amyloid plaques in the CSF sample are detected as it is a hallmark of AD using ThT and QC. […] QC (10 μM) is used to detect Aβ plaques in the same set of CSF samples, which show the same trend as Thioflavin assay and stains CSF3, CSF5, CSF6 and CSF12 samples (FIG. 57 and table 6).

[16] = fluorescence studies with dsDNAs

CCN(CC)c1ccc2cc(/C=C/c3cc[n+](C)c4ccccc34)c(=O)oc2c1 [CL, coumarin lepidine]
ΦF in Buffer [1]: 0.003
emission (fluorescence) maxima [1]: 689 nm
absorption maxima [1]: 519 nm
ΦF with (GC)10 [2]: 0.007
ΦF with (AT)20 [3]: 0.102
ΦF with (D1)mix [4]: 0.052
preferential binding affinity, AT-sites versus GC-sites [5, 16]: towards AT-sites than GC-sites

N=C(N)c1ccc(-c2cc3ccc(C(=N)N)cc3[nH]2)cc1 [DAPI, 4′,6-Diamidino-2-phenylindole]
Fluorescence maxima DNA bound dye ([6]; Table 3, commercial dyes): 450 nm
Fluorescence maxima free dye ([6]; Table 3, commercial dyes): 496 nm
Selectivity ([6]; Table 3, commercial dyes): AT rich
Fluorescence qauntum yield (ΦF) DNA bound dye [6]: 0.42^a
Cell permeability [7]: Semi-Permeable
Toxicity [8]: Non-toxic

CC[n+]1c(-c2ccccc2)c2cc(N)ccc2c2ccc(N)cc21 [Ethidium bromide]
Cell permeability [7]: Impermeable
Toxicity [8]: Toxic

CN1CCN(c2ccc3[nH]c(-c4ccc5[nH]c(-c6ccc(O)cc6)nc5c4)nc3c2)CC1 [Hoechst33258, Hoechst 33258]
Fluorescence maxima DNA bound dye [6]: 490/450 nm
Fluorescence maxima free dye [6]: 490/450 nm
Cell permeability [7]: Permeable
Toxicity [8]: Non-Toxic
fluorescence nuclear staining after DNase I digestion ([9]; DNase I about 100 μg/mL): almost completely diminished
fluorescence nuclear staining after RNase digestion ([9]; RNase about 30 μg/mL): does not affect the fluorescence staining

CC[N+](C)(CC)CCC[n+]1c(-c2ccccc2)c2cc(N)ccc2c2ccc(N)cc21.[I-].[I-] [Propidium iodide]
Fluorescence maxima DNA bound dye ([6]; Table 3, commercial dyes): 617 nm
Fluorescence maxima free dye ([6]; Table 3, commercial dyes): 646 nm
Fluorescence qauntum yield (ΦF) DNA bound dye [6]: 0.13^a
Cell permeability [7]: Impermeable
comparative fluorescence response in presence of (AT)20 ([3]; dye 10 μM, Tris-HCl buffer): do not show appreciable fluorescence changes
Toxicity [8]: Toxic

CCN(CC)c1ccc2cc(/C=C/c3sc4ccccc4[n+]3CC)c(=O)oc2c1 [TCE, (E)-3-(2-(N-ethyl-benzo[d]thiazol-2-yl)vinyl)-7-(diethylamino)-2H-chromen-2-one]
emission behaviour in presence of ssDNA [10]: do not show significant changes in the emission behaviour
fluorescence change in presence of (GC)10 [2]: no appreciable change
fluorescence enhancement in presence of (AT)10 [11]: 5 fold
preferential binding affinity, AT-sites versus GC-sites [5, 16]: towards AT-sites than GC-sites

C#CC[n+]1c(/C=C/c2cc3ccc(N(CC)CC)cc3oc2=O)sc2ccccc21 [TCP, (E)-3-(2-(N-(prop-2-ynyl)-benzo[d]thiazol-2-yl)vinyl)-7-(diethylamino)-2H-chromen-2-one]
emission behaviour in presence of ssDNA [10]: do not show significant changes in the emission behaviour
fluorescence change in presence of (GC)10 [2]: no change
probe concentration at which fluorescence saturates ([11]; fixed concentration of DNAs ((AT)10, (D1)mix, (D2)mix), FIG. 32): about 5 μM
fluorescence enhancement in presence of (AT)10 [11]: 6 fold
preferential binding affinity, AT-sites versus GC-sites [5, 16]: towards AT-sites than GC-sites

C[n+]1c(/C=C/c2ccc3ccc4cccc5ccc2c3c45)sc2ccccc21 [TP, thiazole pyrene]
ΦF in Buffer [1]: 0.002
emission (fluorescence) maxima [1]: 623 nm
absorption maxima [1]: 460 nm
change in absorption and colour with Aβ42 aggregates [12]: fails to exhibit any detectable change in absorption
change in fluorescence in presence of Aβ42 aggregates [12]: does not show any detectable change in the fluorescence behavior
ΦF with (GC)10 [2]: 0.005
ΦF with (AT)20 [3]: 0.042
ΦF with (D1)mix [4]: 0.026
preferential binding affinity, AT-sites versus GC-sites [5]: towards AT-sites than GC-sites
emission maximum in absence of Aβ42 aggregates [13]: 623 nm
absorption maximum in absence of Aβ42 aggregates ([13]; pH 7.4): 460 nm

Cc1ccc2c(c1)sc(-c1ccc(N(C)C)cc1)[n+]2C.[Cl-] [ThT, Thioflavin T, reference compound]
displacement of TC from its complex with Aβ42 aggregates by excess ThT [14]: does not displace TC
Normalized fluorescence intensity (ThT) ([15]; sample CSF1): 14.35
Normalized fluorescence intensity (ThT) ([15]; sample CSF2): 5.60
Normalized fluorescence intensity (ThT) ([15]; sample CSF3): 18.25
Normalized fluorescence intensity (ThT) ([15]; sample CSF4): 7.45
Normalized fluorescence intensity (ThT) ([15]; sample CSF5): 40.65
Normalized fluorescence intensity (ThT) ([15]; sample CSF6): 24.40
Normalized fluorescence intensity (ThT) ([15]; sample CSF7): 5.75
Normalized fluorescence intensity (ThT) ([15]; sample CSF8): 8.40
Normalized fluorescence intensity (ThT) ([15]; sample CSF9): 7.50
Normalized fluorescence intensity (ThT) ([15]; sample CSF10): 3.26
Normalized fluorescence intensity (ThT) ([15]; sample CSF11): 8.35
Normalized fluorescence intensity (ThT) ([15]; sample CSF12): 37.50
Normalized fluorescence intensity (ThT) ([15]; sample CSF13): 4.20
Normalized fluorescence intensity (ThT) ([15]; sample CSF14): 4.52
